One may read the Km as the substrate concentration at which the rate is half of its maximum.

The record followed here is article PMC10885137, “Site-Directed Mutagenesis of VvCYP76F14 (Cytochrome P450) Unveils Its Potential for Selection in Wine Grape Varieties Linked to the Development of Wine Bouquet” (Journal of Agricultural and Food Chemistry, 2024).

The structures appear in SMILES notation.

Common to all, as to conditions: 1 mM NADPH, ATR1 reductase, 100 mM Na/K phosphate pH 5.0, 26 °C, 1 h
For experiment [1], the target named is VvCYP76F14 (from "L35", full-bodied) (Vitis vinifera, UniProt A0A1B2ZBX8, F435A, form not given). An excerpt:
(§1) UPLC-MS/MS substrate depletion kinetics on VvCYP76F14 (from "L35", full-bodied)

The target of experiment [2] is VvCYP76F14 (from "L35", full-bodied) (Vitis vinifera, UniProt A0A1B2ZBX8, I120L, form not given).
VvCYP76F14 (from "L35", full-bodied) (Vitis vinifera, UniProt A0A1B2ZBX8, I120L, form not given), sequence (A0A1B2ZBX8 entry or part of it I120L, form open): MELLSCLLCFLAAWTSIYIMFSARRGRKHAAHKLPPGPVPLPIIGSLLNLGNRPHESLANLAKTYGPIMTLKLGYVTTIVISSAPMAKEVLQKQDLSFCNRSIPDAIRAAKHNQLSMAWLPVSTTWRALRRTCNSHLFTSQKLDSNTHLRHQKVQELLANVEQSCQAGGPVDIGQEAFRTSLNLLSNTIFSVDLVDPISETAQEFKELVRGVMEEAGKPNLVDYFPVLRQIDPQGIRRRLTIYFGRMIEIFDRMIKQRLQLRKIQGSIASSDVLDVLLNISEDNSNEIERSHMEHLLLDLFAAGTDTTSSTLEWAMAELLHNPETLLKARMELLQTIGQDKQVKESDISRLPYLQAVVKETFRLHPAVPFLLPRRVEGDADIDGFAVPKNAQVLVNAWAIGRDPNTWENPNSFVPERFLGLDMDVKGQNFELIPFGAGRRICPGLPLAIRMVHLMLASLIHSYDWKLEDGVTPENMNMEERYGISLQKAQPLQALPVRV
Text: as §1

For experiment [3], the target named is VvCYP76F14 (from "L35", full-bodied) (Vitis vinifera, UniProt A0A1B2ZBX8, L298V, form not given).
VvCYP76F14 (from "L35", full-bodied) (Vitis vinifera, UniProt A0A1B2ZBX8, L298V, form not given), sequence (A0A1B2ZBX8 entry or part of it L298V, form open): as the sequence (A0A1B2ZBX8 entry or part of it I120L, form open) above, with L120I, L298V counted along it
Text: as §1

Experiment [4] concerns the target VvCYP76F14 (from "L35", full-bodied) (Vitis vinifera, UniProt A0A1B2ZBX8).
Text: as §1

Experiment [5] deals with VvCYP76F14 (from "L35", full-bodied) (Vitis vinifera, UniProt A0A1B2ZBX8, S485A, form not given).
VvCYP76F14 (from "L35", full-bodied) (Vitis vinifera, UniProt A0A1B2ZBX8, S485A, form not given), sequence (A0A1B2ZBX8 entry or part of it S485A, form open): as the sequence (A0A1B2ZBX8 entry or part of it I120L, form open) above, with L120I, S485A counted along it
Text: as §1

The target of experiment [6] is VvCYP76F14 (from "L35", full-bodied) (Vitis vinifera, UniProt A0A1B2ZBX8, D306A, form not given).
VvCYP76F14 (from "L35", full-bodied) (Vitis vinifera, UniProt A0A1B2ZBX8, D306A, form not given), sequence (A0A1B2ZBX8 entry or part of it D306A, form open): as the sequence (A0A1B2ZBX8 entry or part of it I120L, form open) above, with L120I, D306A counted along it
Text: as §1

The target in experiment [7] is VvCYP76F14 (from "L35", full-bodied) (Vitis vinifera, UniProt A0A1B2ZBX8, T188A, form not given).
VvCYP76F14 (from "L35", full-bodied) (Vitis vinifera, UniProt A0A1B2ZBX8, T188A, form not given), sequence (A0A1B2ZBX8 entry or part of it T188A, form open): as the sequence (A0A1B2ZBX8 entry or part of it I120L, form open) above, with L120I, T188A counted along it
Text: as §1

The target in experiment [8] is VvCYP76F14 (from "L35", full-bodied) (Vitis vinifera, UniProt A0A1B2ZBX8, G304A, form not given).
VvCYP76F14 (from "L35", full-bodied) (Vitis vinifera, UniProt A0A1B2ZBX8, G304A, form not given), sequence (A0A1B2ZBX8 entry or part of it G304A, form open): as the sequence (A0A1B2ZBX8 entry or part of it I120L, form open) above, with L120I, G304A counted along it
Text: as §1

VvCYP76F14 (from "L35", full-bodied) (Vitis vinifera, UniProt A0A1B2ZBX8), sequence (A0A1B2ZBX8 entry or part of it): as the sequence (A0A1B2ZBX8 entry or part of it I120L, form open) above, with L120I counted along it
VvCYP76F14 (from "L35", full-bodied) (Vitis vinifera, UniProt A0A1B2ZBX8, F435A, form not given), sequence (A0A1B2ZBX8 entry or part of it F435A, form open): as the sequence (A0A1B2ZBX8 entry or part of it I120L, form open) above, with L120I, F435A counted along it

For `C=CC(C)(O)CCC=C(C)C` (centres unmarked) [linalool], the Km was determined as 288 ± 19.3 µM in experiment [1], 156 ± 12.8 µM in experiment [2] and 74.7 ± 7.89 µM in experiment [3].

As to `C=CC(C)(O)CC/C=C(\C)C=O` (centres unmarked) [(E)-8-oxolinalool], the Michaelis-Menten constant (Km) is 41.4 ± 4.93 µM in experiment [4], 172 ± 9.99 µM in experiment [5] and 269 ± 17.7 µM in experiment [6].

As to `C=CC(C)(O)CC/C=C(\C)CO` (centres unmarked) [(E)-8-hydroxylinalool], the Km in experiment [7] worked out at 77.4 ± 8.56 µM; in experiment [8], 170 ± 13.6 µM.
